Experimental data as given in patent publication US11945822B2, “Pyrazolo-triazine and/or pyrazolo-pxrimidine derivatives as selective inhibitor of cyclin dependent kinase” (QURIENT CO., LTD., priority 2018, dated 2024).
Read-outs that look alike come from different tables or passages of the source.

Tests used:
CDK2/Cyclin A = target: T1, CDK2/Cyclin A (Homo sapiens, UniProt P24941); experiment: Enzymatic assay for CDK2 (FRET based LANCE Ultra kinase assay); assay type: biochemical
T1 construct: purchased Invitrogen PV6290
Summary of the method: (§1)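 LANCE Ultra TR-FRET: ULight-MBP peptide (68 nM) with ATP at Km, […], 60 min at 23° C. EDTA plus Eu-anti-phospho-MBP added, another 60 min, then 665/615 nm emission read. Compounds tested as 8-dose 4-fold DMSO dilutions.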

OVCAR-3 = experiment: Cellular OVCAR-3 viability assay (CellTiter-Glo, 72 hours); assay type: cell-based; settings: Homo sapiens
Source text: Human T-cell acute lymphoblastic leukemia cell line, MOLT-4 (ATCC, Cat #CRL-1582), Human multiple myeloma cell line, RPMI-8226 (Invitrogen, Cat #22400-089) and MM.1S (ATCC, Cat #CRL-2974), NSCLC (Non-small cell lung cancer) cell line H460 (ATCC, Cat #HTB-177), Human colon colorectal carcinoma cell line HCT116 (ATCC, Cat #CCL-247), Human acute monocytic leukemia cell line MV4-11 (ATCC, Cat #CRL-9591), OVCAR-3 (ATCC, Cat #HTB-161) and A2780 (ECACC, Cat #93112519) were obtained from ATCC. Cells were grown in RPMI-1640 media (Invitrogen, Cat #22400-089) supplemented with 10% FBS (Invitrogen, Cat #10099141) and 1% penicillin/streptomycin (Invitrogen, Cat #15070063) and cultured at 37° C., 5% CO2 in a humidified chamber. All cell lines were routinely tested for mycoplasma.
The effect of the CDK7 inhibitor to inhibit the growth of target cancer cells was evaluated through the 72 hours time period of viability assay. Briefly, the candidate cell line ware plated in 96 well plate at the following density of cells respectively. 1×10^4 cells/well for MOLT-4, RPMI-8226, MV4-11 and MM.1S, 5×10^3 for H460, HCT116 and OVCAR-3 and IX 10^3 for A2780. After 24 hours, the cells were treated with various concentrations of the compound (ranging from 0.0015 uM to 10 uM). DMSO solvent without compound served as a control and final DMSO concentration less than 0.1%. After 72 hours of incubation at 37° C., 5% CO2 incubator, cells were analyzed for the viability using the CellTiter-Glo Luminescent Cell Viability Assay (Promega, Cat #G7570). All viability assays were performed in duplicate and Luminescence was read using an Envision (Perkin Elmer, USA). Data was analyzed using XLfit software.

A2780 = experiment: Cellular A2780 viability assay (CellTiter-Glo, 72 hours); assay type: cell-based; settings: Homo sapiens
Summary of the method: (§2)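 Cells seeded at 1×10^4/well (MM.1S), 5×10^3 (OVCAR-3) or 1×10^3 (A2780), grown in RPMI-1640 with 10% FBS. After 24 h, compound added at 0.0015–10 uM, final DMSO below 0.1%, for 72 h at 37° C. Viability read by CellTiter-Glo luminescence in duplicate, with curve fitting.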

RPMI-8226 = experiment: Cellular RPMI-8226 viability assay (CellTiter-Glo, 72 hours); assay type: cell-based; settings: Homo sapiens
Summary of the method: (§3)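 72 h treatment, 37 °C, 5% CO2; DMSO ctrl, final <0.1%; CellTiter-Glo luminescence; n=2.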

CDK1/Cyclin B = target: T2, CDK1/Cyclin B (Homo sapiens, UniProt P06493); experiment: Enzymatic assay for CDK1 (FRET based LANCE Ultra kinase assay); assay type: biochemical
T2 construct: purchased Invitrogen PR4768C
Summary of the method: as §1

HCT116 = experiment: Cellular HCT116 viability assay (CellTiter-Glo, 72 hours); assay type: cell-based; settings: Homo sapiens, HCT-116
Summary of the method: as §3

CDK5/p25 = target: T3, CDK5/p25 (Homo sapiens, UniProt Q00535); experiment: Enzymatic assay for CDK5 (FRET based LANCE Ultra kinase assay); assay type: biochemical
T3 construct: purchased Invitrogen PR8543B
Summary of the method: as §1

H460 = experiment: Cellular H460 viability assay (CellTiter-Glo, 72 hours); assay type: cell-based; settings: Homo sapiens, NCI-H460
Summary of the method: as §3

CDK7/Cyclin H/MNAT1 = target: T4, CDK7/Cyclin H/MNAT1 (Homo sapiens, UniProt P50613); experiment: Enzymatic assay for CDK7 (FRET based LANCE Ultra kinase assay); assay type: biochemical
T4 construct: purchased Invitrogen PR6749B
Summary of the method: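 LANCE Ultra TR-FRET kinase assay using a ULight-labeled peptide substrate and a Eu-labeled anti-phospho antibody, with ATP at its Km. Purified CDK/cyclin complex was added to compound after brief centrifugation.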

MV4-11 = experiment: Cellular MV4-11 viability assay (CellTiter-Glo, 72 hours); assay type: cell-based; settings: Homo sapiens
Summary of the method: as §3

MM.1S = experiment: Cellular MM.1S viability assay (CellTiter-Glo, 72 hours); assay type: cell-based; settings: Homo sapiens, MM1.S
Summary of the method: as §2

MOLT-4 = experiment: Cellular MOLT-4 viability assay (CellTiter-Glo, 72 hours); assay type: cell-based; settings: Homo sapiens, MOLT4 viability assay
Summary of the method: as §3

[1] = read-out: CDK2 enzymatic activity (IC50 range)
[2] = read-out: CDK1 enzymatic activity (IC50 range)
[3] = read-out: CDK5 enzymatic activity (IC50 range)
[4] = read-out: CDK7 enzymatic activity (IC50 range)

T3 sequence (Q00535 whole entry): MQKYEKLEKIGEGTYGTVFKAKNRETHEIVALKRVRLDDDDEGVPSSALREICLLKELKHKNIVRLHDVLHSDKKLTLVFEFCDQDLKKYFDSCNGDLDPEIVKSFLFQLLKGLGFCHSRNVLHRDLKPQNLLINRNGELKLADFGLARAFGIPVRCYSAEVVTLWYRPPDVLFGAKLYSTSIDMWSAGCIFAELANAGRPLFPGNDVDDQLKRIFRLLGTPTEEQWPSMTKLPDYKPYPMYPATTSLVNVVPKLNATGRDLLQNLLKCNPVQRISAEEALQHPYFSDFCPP
T3 sequence (Q15078 99-307 partner limits assumed): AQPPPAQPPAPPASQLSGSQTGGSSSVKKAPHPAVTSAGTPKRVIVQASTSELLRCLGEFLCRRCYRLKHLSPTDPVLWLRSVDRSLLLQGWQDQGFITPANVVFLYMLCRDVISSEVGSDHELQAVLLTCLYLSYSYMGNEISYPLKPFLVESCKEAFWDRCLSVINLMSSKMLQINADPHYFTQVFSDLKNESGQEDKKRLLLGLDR
T4 sequence (P50613 whole entry): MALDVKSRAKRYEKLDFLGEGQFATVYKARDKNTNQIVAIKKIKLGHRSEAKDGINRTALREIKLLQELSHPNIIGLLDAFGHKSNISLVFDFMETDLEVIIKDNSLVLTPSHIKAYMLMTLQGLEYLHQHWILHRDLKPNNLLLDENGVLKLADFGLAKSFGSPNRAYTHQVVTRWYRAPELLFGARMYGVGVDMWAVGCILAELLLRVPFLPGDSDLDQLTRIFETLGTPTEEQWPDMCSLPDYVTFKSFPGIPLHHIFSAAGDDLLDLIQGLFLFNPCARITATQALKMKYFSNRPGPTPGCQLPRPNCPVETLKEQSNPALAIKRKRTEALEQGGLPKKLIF
T4 sequence (P51946 whole entry partner): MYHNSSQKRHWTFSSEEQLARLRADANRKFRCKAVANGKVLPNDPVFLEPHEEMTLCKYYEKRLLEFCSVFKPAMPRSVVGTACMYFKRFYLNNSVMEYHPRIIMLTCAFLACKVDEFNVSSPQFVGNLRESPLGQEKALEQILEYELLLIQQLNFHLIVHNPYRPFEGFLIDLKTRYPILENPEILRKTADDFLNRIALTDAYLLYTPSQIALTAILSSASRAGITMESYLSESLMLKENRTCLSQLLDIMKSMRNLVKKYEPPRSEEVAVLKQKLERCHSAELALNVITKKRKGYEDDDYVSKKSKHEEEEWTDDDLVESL
T4 sequence (P51948 whole entry partner): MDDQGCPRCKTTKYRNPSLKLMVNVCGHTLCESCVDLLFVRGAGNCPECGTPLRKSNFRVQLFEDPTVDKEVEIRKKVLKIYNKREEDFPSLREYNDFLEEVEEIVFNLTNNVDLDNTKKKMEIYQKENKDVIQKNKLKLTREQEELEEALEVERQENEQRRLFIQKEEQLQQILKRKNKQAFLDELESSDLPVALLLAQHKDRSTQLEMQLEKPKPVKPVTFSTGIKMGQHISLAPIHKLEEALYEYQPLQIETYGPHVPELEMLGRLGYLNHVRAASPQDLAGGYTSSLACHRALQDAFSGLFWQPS
T2 sequence (P06493 whole entry): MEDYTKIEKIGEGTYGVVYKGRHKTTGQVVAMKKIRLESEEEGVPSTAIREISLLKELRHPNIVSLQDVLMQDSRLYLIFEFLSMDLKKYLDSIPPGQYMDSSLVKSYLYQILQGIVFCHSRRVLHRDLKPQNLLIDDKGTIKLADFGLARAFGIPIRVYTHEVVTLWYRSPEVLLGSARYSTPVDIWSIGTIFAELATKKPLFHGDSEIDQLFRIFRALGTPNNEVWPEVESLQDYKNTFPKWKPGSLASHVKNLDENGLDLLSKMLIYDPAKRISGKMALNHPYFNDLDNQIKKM
T2 sequence (P14635 whole entry partner): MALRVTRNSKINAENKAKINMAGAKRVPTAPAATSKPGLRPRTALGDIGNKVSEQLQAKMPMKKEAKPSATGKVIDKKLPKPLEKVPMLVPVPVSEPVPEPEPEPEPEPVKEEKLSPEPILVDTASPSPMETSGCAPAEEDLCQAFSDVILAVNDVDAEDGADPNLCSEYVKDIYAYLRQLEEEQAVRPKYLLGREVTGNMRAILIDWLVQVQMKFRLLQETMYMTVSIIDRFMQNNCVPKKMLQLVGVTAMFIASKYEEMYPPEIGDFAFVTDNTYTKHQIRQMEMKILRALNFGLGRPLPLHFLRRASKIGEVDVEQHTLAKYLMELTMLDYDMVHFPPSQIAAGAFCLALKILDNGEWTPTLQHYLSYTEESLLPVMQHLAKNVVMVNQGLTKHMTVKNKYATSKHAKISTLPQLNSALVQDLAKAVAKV

SMILES	IC50 (CDK2/Cyclin A; [1]) [nM]	IC50 (OVCAR-3) [nM]	IC50 (A2780) [nM]	IC50 (RPMI-8226) [nM]	IC50 (CDK1/Cyclin B; [2]) [nM]	IC50 (HCT116) [nM]	IC50 (CDK5/p25; [3]) [nM]	IC50 (H460) [nM]	CDK1/CDK7: Selectivity of CDK7 inhibition over CDK1 inhibition (CDK7/Cyclin H/MNAT1; CDK7 over CDK1)	CDK2/CDK7: Selectivity of CDK7 inhibition over CDK2 inhibition (CDK7/Cyclin H/MNAT1; CDK7 over CDK2)	CDK5/CDK7: Selectivity of CDK7 inhibition over CDK5 inhibition (CDK7/Cyclin H/MNAT1; CDK7 over CDK5)	IC50 (CDK7/Cyclin H/MNAT1; [4]) [nM]	IC50 (MV4-11) [nM]	IC50 (MM.1S) [nM]	further results
CC(C)c1cnn2c(NCc3ccccc3-c3cc4cccc(NC(=O)C5CC5)c4[nH]3)nc(N3CCC(N)CC3)nc12 [Compound 144]	100 to 1000	1000 to 10000	≤ 1000	< 1000	100 to 1000	< 1000	< 100	< 1000	B (B=less than 200 fold, but greater than 20 fold)	B (B=less than 200 fold, but greater than 20 fold)	C (C=less than 20 fold)	< 100	< 1000	–	–
CC(C)c1cnn2c(NCc3ccccc3-c3ccc4ccccc4n3)nc(N3CCC(O)(CN)CC3)nc12 [Compound 219]	> 1000	1000 to 10000	≤ 1000	–	> 1000	< 1000	> 1000	< 1000	A (A=greater than 200 fold)	A (A=greater than 200 fold)	A (A=greater than 200 fold)	< 100	< 1000	–	–
CC(C)c1cnn2c(N[C@@H](C)c3ccccc3-n3cc4ccccc4n3)nc(N3CCC(N)CC3)nc12 [Compound 183]	> 1000	1000 to 10000	≤ 1000	–	> 1000	< 1000	> 1000	< 1000	A (A=greater than 200 fold)	A (A=greater than 200 fold)	A (A=greater than 200 fold)	< 100	< 1000	≤ 1000	–
CC(C)c1cnn2c(NCc3ccccc3-n3cccn3)nc(-c3cccc(OC4CCNC4)c3)nc12 (racemic) [Compound 163]	100 to 1000	1000 to 10000	≤ 1000	–	> 1000	–	100 to 1000	< 1000	A (A=greater than 200 fold)	B (B=less than 200 fold, but greater than 20 fold)	B (B=less than 200 fold, but greater than 20 fold)	< 100	< 1000	≤ 1000	–
CC(C)c1cnn2c(NCc3c(Cl)cccc3-c3cc4ccccc4[nH]3)nc(N3CCC(N)CC3)nc12 [Compound 182]	> 1000	1000 to 10000	≤ 1000	< 1000	> 1000	< 1000	> 1000	< 1000	A (A=greater than 200 fold)	A (A=greater than 200 fold)	A (A=greater than 200 fold)	< 100	< 1000	≤ 1000	–
CC(C)c1cnn2c(NCc3ccccc3-c3ccc4ccccc4n3)nc(NC[C@H]3CCNC[C@@H]3O)nc12 [Compound 225]	100 to 1000	≤ 1000	≤ 1000	–	> 1000	< 1000	100 to 1000	< 1000	A (A=greater than 200 fold)	A (A=greater than 200 fold)	A (A=greater than 200 fold)	< 100	< 1000	–	–
CC(C)c1cnn2c(NCc3c(Cl)cccc3-c3ccc4ccccc4n3)nc(N3CCC(N)CC3)nc12 [Compound 194]	> 1000	1000 to 10000	≤ 1000	–	> 1000	< 1000	> 1000	< 1000	A (A=greater than 200 fold)	A (A=greater than 200 fold)	A (A=greater than 200 fold)	< 100	< 1000	≤ 1000	–
CC(C)c1cnn2c(NCc3ccccc3-c3ccc4ccccc4n3)nc(NCC[C@@H](O)CN)nc12 [Compound 251]	–	1000 to 10000	≤ 1000	–	–	–	–	< 1000	–	–	–	–	< 1000	–	IC50 (CDK2/Cyclin A; read-out: CDK2 enzymatic activity (IC50 activity range)): > 1000 nM; IC50 (CDK1/Cyclin B; read-out: CDK1 enzymatic activity (IC50 activity range)): > 1000 nM; IC50 (CDK5/p25; read-out: CDK5 enzymatic activity (IC50 activity range)): > 1000 nM; CDK1/CDK7: Selectivity of CDK7 inhibition over CDK1 inhibition (CDK7/Cyclin H/MNAT1; CDK1/CDK7): A (A=greater than 200 fold); CDK2/CDK7: Selectivity of CDK7 inhibition over CDK2 inhibition (CDK7/Cyclin H/MNAT1; CDK2/CDK7): A (A=greater than 200 fold); CDK5/CDK7: Selectivity of CDK7 inhibition over CDK5 inhibition (CDK7/Cyclin H/MNAT1; CDK5/CDK7): A (A=greater than 200 fold); IC50 (CDK7/Cyclin H/MNAT1; read-out: CDK7 enzymatic activity (IC50 activity range)): < 100 nM
CC(C)c1cnn2c(NCc3ccccc3-c3ccc4ccccc4n3)nc(N3CCC(N)CC3)nc12 [Compound 48]	> 1000	1000 to 10000	≤ 1000	< 1000	> 1000	< 1000	100 to 1000	< 1000	A (A=greater than 200 fold)	A (A=greater than 200 fold)	B (B=less than 200 fold, but greater than 20 fold)	< 100	< 1000	≤ 1000	IC50 (MOLT-4): 1000 to 10000 nM
